The subject of assay [1] is human ovary cancer cells A2780. Nature of the assay: SRB anti-proliferative assay, A2780. The class given is cell-based. The following applies: read-out: Anti-proliferative IC50, A2780. As to the method: (§1) The present example evaluated the anti-tumor activity of the molecules provided by the present invention. The present example mainly used a method with SRB (sulforhodamine B) dying, in which proteins in the cell were stained with SRB dye to determine protein content in the cell so as to characterize cell growth density. Firstly, the test compound was formulated into a stock solution (10 mM), which was stored at 4° C. in a refrigerator. Prior to beginning the assay, the stock solution was diluted with DMSO into a series of different concentrations. The required concentrations were obtained by diluting with complete growth medium. Well growing cells were seeded in a 96-well plate (5000 cells/well, 100 uL) and cultured in an incubator at 37° C., 5% CO2, and 90% RH. 24 h later, the prepared compound solution (100 μL) was slowly added to cell solution in the 96-well plate, and the well with DMSO (final concentration 0.5%) instead of the drug was used as a drug free control. The plate was incubated for 48 h. In addition, a day 0 plate that was drug free was directly detected after cell seeded in the plate for 24 h. The 96-well plate was taken out and added with trichloroacetic acid (50 μL, final concentration 10%). The plate was incubated at 4° C. for 1 h to fix the cells.
(§2) The plate was washed with ultrapure water and air-dried. The plate was then stained with SRB dye (0.4% in 1% acetic acid, 100 μL) for 30 min at room temperature. The plate was then washed with 1% acetic acid and then air-dried. A Tris base solution (100 μL, 10 mM, pH10.4) was added, after which the plate was gently shaken for 1 h on an orbital shaker to ensure that the dyes were completed dissolved. The optical density (OD) was recorded on a TECAN Infinite M200 Pro multimode reader at 515 nm. The cell growth (% of control)=(OD value of wells added with drug−mean OD value of Day 0 plate)/(OD value of DMSO drug-free control well−mean OD value of Day 0 plate)*100.

Assay [2] deals with human colon cancer cells HCT8. Nature of the assay: SRB anti-proliferative assay, HCT-8. It is filed as cell-based. The following applies: read-out: Anti-proliferative IC50, HCT-8. As to the method:
as §1, §2

Assay [3] concerns human lung cancer cells A549. Nature of the assay: SRB anti-proliferative assay, A549. The class given is cell-based. The conditions noted are these: read-out: Anti-proliferative IC50, A549. The method, then: as §1, §2
Assay [4] deals with human breast cancer cells MCF7. Description: SRB anti-proliferative assay, MCF-7. It is filed as cell-based. The conditions noted are these: read-out: Anti-proliferative IC50, MCF-7. As to the method:
as §1, §2

The test system of assay [5] is human nasopharyngeal carcinoma cells CNE2. Description: SRB anti-proliferative assay, CNE2. The class given is cell-based. The following applies: read-out: Anti-proliferative IC50, CNE2. As to the method: as §1, §2
Assay [6] has as its system human colon cancer cells SW480. Description: SRB anti-proliferative assay, SW480. The class given is cell-based. The conditions noted are these: read-out: Anti-proliferative IC50, SW480. As to the method:
as §1, §2

Assay [7] concerns human liver cancer cell HepG2. Nature of the assay: SRB anti-proliferative assay, HepG2. It is filed as cell-based. The conditions noted are these: read-out: Anti-proliferative IC50, HepG2. The method, then: as §1, §2
The subject of assay [8] is Paclitaxel-resistant human ovarian carcinoma cell A2780/TAX. Description: SRB anti-proliferative assay, drug-resistant A2780/TAX. The class given is cell-based. The conditions noted are these: read-out: Anti-proliferative IC50, A2780/TAX. The method, then:
as §1, §2
(§3) We also evaluated the anti-proliferation activities of selected compounds against drug-resistant cancer cell lines.

Assay [9] deals with incristine resistant human ileocecum carcinoma cell HCT-8/VCT. Nature of the assay: SRB anti-proliferative assay, drug-resistant HCT-8/VCT. It is filed as cell-based. The following applies: HCT8/VCT, read-out: Anti-proliferative IC50, HCT-8/VCT. The method, then: as §1, §2, §3
Assay [10] deals with cis-platinum resistant human lung cancer cell A549/CDDP. Description: SRB anti-proliferative assay, drug-resistant A549/CDDP. It is filed as cell-based. The conditions noted are these: read-out: Anti-proliferative IC50, A549/CDDP. The method, then:
as §1, §2, §3

Assay [11] deals with doxorubicin resistant breast cancer cell MCF-7/DOX. Nature of the assay: SRB anti-proliferative assay, drug-resistant MCF-7/DOX. The class given is cell-based. The conditions noted are these: Homo sapiens, MCF7-DOX, read-out: Anti-proliferative IC50, MCF-7/DOX. As to the method:
as §1, §2, §3

Another assay deals with tubulin. Description: Microtubule polymerization inhibition assay (tubulin polymerization assay kit). The conditions noted are these: 2 mg/ml tubulin, 37° C., fluorescence, 1 hour; read-out: IC50 on inhibition of microtubules polymerization. The class given is biochemical. The method, then:
Tubulin polymerization assay kit was used in the example, and the accompanying experimental protocol was followed. The specific method was described below.
Prior to the assay, the compounds were diluted with DMSO into a series of different concentrations and then diluted with sterile ultra-pure water into 10× solution of compounds. A 96-well plate was pre-warmed to 37° C. for 30 min in a multi-functional microplate reader. Reaction solution (2 mg/ml tubulin, 80 mM PIPES pH6.9, 2.0 mM MgCl2, 0.5 mM EGTA, 1.0 mM GTP, 15% glycerin) is prepared by materials needed in microtubule polymerization (tubulin buffer 85 uL, Glycerin buffer 150 μL, general buffer 205 μL, GTP ([…]) 4.4 μL). 5 μL solution of compound were added into the 96-well plate and incubated in a microplate reader for 1 min. DMSO was employed as a control. The plate was taken out and then reaction solution was immediately added ([…]). The plate was then immediately placed back into the reader and vibrated for 5 seconds before recording. The microplate reader was set at 37° C., and monitored in a kinetic model with emission wavelength at 450 nm and excitation wavelength at 360 nm. The plate was mixed and measured every minute and determined for 1 hour. A curve of fluorescence intensity v.s. time was obtained and the inhibition rate was calculated by the following formula. GraphPad Prism software was used to determine the IC50. Inhibition rate=[1−(average value of plateau of test curve−value of time 0)/(average value of plateau of DMSO curve−value of time 0)]*100.

A further assay has as its system A549 cells. Nature of the assay: Microtubule re-assembly and mitosis on cellular level (confocal immunofluorescence). The class given is cell-based, human. The conditions noted are these: 31 nM. As to the method: The method was primarily described here below.
A549 cells were seeded in a confocal culture dish at 8×10^4 cells/dish, grown for 24 h and divided into two groups. DMSO (0.5%) was added to one group followed by culture for 24 h. Compound 3 (31 nM) was added to the other group followed by culture for 24 h. Then cells of two dishes were fixed directly (37° C.). The remaining cells were placed in ice for 1 h, then at 37° C. for 0, 5, 10, and 15 min Cells were then fixed with paraformaldehyde (4%) for 15 min. Then cells were subject to permeabilization buffer for 15 min Primary β-tubulin mouse antibody was added and incubated at room temperature for 1 h.
3 on microtubules, microtubule re-assembly and mitosis: a, c-f, was the solvent control group (0.5% DMSO added), b, g-j was test group (31 nM compound no. 3 added), Scale bars: […].

Where [12] appears, read: paclitaxel-resistant A2780/TAX, SRB.
Setting [13] is: vincristine-resistant HCT-8/VCT, SRB.
Where [14] appears, read: cis-platinum resistant A549/CDDP, SRB.
[15] abbreviates: doxorubicin resistant MCF-7/DOX, SRB.

Like-named read-outs stand apart in the source and are kept apart here.

As for `COc1ccc(/C=C/C(=O)c2ccccc2-c2ccc(F)cc2)cc1B(O)O` [compound 1, (E)-(5-(3-(4′-Fluoro[1,1′-biphenyl]-2-yl)-3-oxoprop-1-en-1-yl)-2-methoxyphenyl)boronic acid], the IC50 in assay [1] (A2780, SRB, 48 h) is 63 nM; in assay [2] (HCT-8, SRB, 48 h), 63 nM; in assay [3] (A549, SRB, 48 h), 70 nM; in assay [4] (MCF7, MCF-7, SRB, 48 h), 40 nM; in assay [5] (CNE-2, CNE2, SRB, 48 h), 83 nM; in assay [6] (SW480, SRB, 48 h) it was 41 nM. Besides, the IC50 in [7] (HepG2, SRB, 48 h) is 30 nM; in [8] (setting [12]), 227 nM; in [9] (setting [13]), 84 nM; in assay [10] (setting [14]), 74 nM; in assay [11] (setting [15]) it was 24 nM; in the assay on tubulin, 3410 nM.
Regarding `CN(C)c1ccc(/C=C/C(=O)c2ccccc2-c2ccc(F)cc2)cc1` [compound 2, (E)-3-(4-(Dimethylamino)phenyl)-1-(4′-fluoro[1,1′-biphenyl]-2-yl)prop-2-en-1-one], the IC50 in assay [1] (A2780, SRB, 48 h) was 94 nM; in assay [2] (HCT-8, SRB, 48 h), 133 nM; in assay [3] (A549, SRB, 48 h), 64 nM; in assay [4] (MCF7, MCF-7, SRB, 48 h), 66 nM; in [5] (CNE-2, CNE2, SRB, 48 h), 36 nM; in assay [6] (SW480, SRB, 48 h), 47 nM. The IC50 in [7] (HepG2, SRB, 48 h) stood at 58 nM; in assay [8] (setting [12]), 49 nM; in [9] (setting [13]) it was 96 nM; in assay [10] (setting [14]), 105 nM; in assay [11] (setting [15]) it was 45 nM; with tubulin it was 3560 nM.
Turning to `COc1ccc(/C=C/C(=O)c2ccccc2-c2cccc(F)c2)cc1O` [compound 3, (E)-1-(3′-Fluoro[1,1′-biphenyl]-2-yl)-3-(3-hydroxy-4-methoxyphenyl)prop-2-en-1-one], the IC50 was found to be 13 nM in [1] (A2780, SRB, 48 h); 16 nM in assay [2] (HCT-8, SRB, 48 h); 11 nM in [3] (A549, SRB, 48 h); 65 nM in assay [4] (MCF7, MCF-7, SRB, 48 h); 17 nM in assay [5] (CNE-2, CNE2, SRB, 48 h); 12 nM in [6] (SW480, SRB, 48 h). In addition, the IC50 in [7] (HepG2, SRB, 48 h) is 14 nM; in [8] (setting [12]) it was 190 nM; in assay [9] (setting [13]), 57 nM; in assay [10] (setting [14]) it was 121 nM; in assay [11] (setting [15]) it was 2 nM; in the assay with tubulin it was 487 nM. Moreover, in the assay on A549 cells, the “Abnormal events in mitotic phase” value was “multipolarization of spindle and multinucleation”. Further, the “Effect on filiform structure of microtubule” value in the assay with A549 cells (24 h) is “microtubule depolymerized to form discreet tublin”. The “Automatic re-assembly (polymerization) of tubulin into microtubule after ice incubation” value in the assay with A549 cells (ice 1 h then 37° C. 0-15 min) was “obviously inhibited”.
Turning to `COc1ccc(/C=C/C(=O)c2ccccc2-c2cc(OC)c(OC)c(OC)c2)cc1O` [compound 4, (E)-3-(3-Hydroxy-4-methoxyphenyl)-1-(3′,4′,5′-trimethoxy[1,1′-biphenyl]-2-yl)prop-2-en-1-one], the IC50 in [1] (A2780, 48 h) amounted to 69 nM; in [2] (HCT-8, 48 h) it was 56 nM; in assay [3] (A549, 48 h) it was 69 nM; in assay [4] (MCF7, 48 h) it was 82 nM; in assay [5] (CNE-2, 48 h) it was 37 nM; in assay [6] (SW480, 48 h), 61 nM. The IC50 in assay [7] (HepG2, 48 h) amounted to 46 nM; in assay [8] (A2780/TAX), 364 nM; in assay [9], 238 nM; in [10] (A549/CDDP), 93 nM; in [11] it was 66 nM; in the assay on tubulin it was 2780 nM.
For `COc1ccc(/C=C/C(=O)c2ccccc2-c2ccc(OC)c(OC)c2OC)cc1O` [compound 5, (E)-3-(3-Hydroxy-4-methoxyphenyl)-1-(2′,3′,4′-trimethoxy[1,1′-biphenyl]-2-yl)prop-2-en-1-one], the IC50 is 74 nM in assay [1] (A2780, SRB, 48 h); 59 nM in assay [2] (HCT-8, SRB, 48 h); 55 nM in assay [3] (A549, SRB, 48 h); 96 nM in assay [4] (MCF7, MCF-7, SRB, 48 h); 45 nM in [5] (CNE-2, CNE2, SRB, 48 h); 74 nM in assay [6] (SW480, SRB, 48 h). Further, the IC50 in [7] (HepG2, SRB, 48 h) is 52 nM; in assay [8] (setting [12]), 289 nM; in assay [9] (setting [13]) it was 266 nM; in [10] (setting [14]) it was 122 nM; in assay [11] (setting [15]) it was 59 nM; with tubulin, 6500 nM.
